# Patent US9028855B2, “Plant additives and uses thereof to modulate the synthesis of membrane glycerolipids in planta” (Commissariat a l'Energie Atomique et aux Energies …, priority 2009, dated 2015)
# Columns and labels:
# [1] = system: phosphate transporter PHT1;4; assay: 8′G::GUS, follow-up of the expression of the phosphate transporter PHT1;4 (GUS staining); type: in vivo, A. thaliana; conditions: compound added to the cultivation medium
# Text: 8′G cell line was obtained as follows: for the PHT1;4 promoter fusion, a 2 kb region upstream of the ORF of PHT1;4 was cloned in the vector pENTR/D-TOPO (pENTRT™/D-TOPO® Cloning Kit, ref. K2400-20, Invitrogen) and transferred to pKGWFS7 (Karimi et al., 2002) by recombination using Gateway BP (Gateway® BP Clonase® enzyme mix, ref. 11789-013, Invitrogen) and LR Clonase enzyme mixes (LR Clonase® II Plus enzyme, ref. 12538-120, Invitrogen), respectively, to produce the pPHT1;4:GUS-GFP gene fusion. This fusion was then introduced into the Arabidopsis genome via the Agrobacterium-mediated transformation system (Logemann et al., 2006).
# (§1) Plants were examined for GUS activity by dipping the samples in a GUS staining solution (50 mM sodium phosphate buffer pH 7.0; 0.01% Triton X-100, 1 mM K3Fe(CN)6, 1 mM K4Fe(CN)6, 1 mg/ml 5-dromo-4-chloro-3-indolyl (3-D-GLUCURONIDE (X-Gluc A) and incubated at 37° C. over-night. After staining, the plants were fixed 2 hours in 50 mM sodium phosphate buffer pH 7.0; 1% glutaraldehyde; 4% formaldehyde.
# PHT1;4 = assay: Chemical genetic screen, pPHT1;4::GUS line (GUS activity in root tip); type: in vivo, A. thaliana; conditions: plant grown on high phosphate medium (500 μM), FIG. 2
# Procedure: pPHT1;4::GUS (DCJ 10) cell line is as described by Misson et al. (Misson et al., 2004). This cell line expresses the GUS reporter under the control of the promoter of the pht1;4 gene.
# as §1
# Chemical genetic screen was based on PHT1;4 expression using the line pPHT1;4::GUS (Misson et al., 2004). […] The formula of MC2 is the following: […]
# enzyme MGD3 = assay: MGD3::GUS, follow-up of the expression of the gene encoding the enzyme MGD3 (GUS staining); type: in vivo, A. thaliana; conditions: high phosphate medium + MC2 5 μM, FIG. 9
# Procedure: (§2) pMGD3:GUS cells are as described by Kobayashi et al. (Kobayashi et al., 2004). In these cells, the GUS reporter is expressed under the control of the mgd3 promoter. […] Plants were examined for GUS activity by dipping the samples in a GUS staining solution (50 mM sodium phosphate buffer pH 7.0; 0.01% Triton X-100, 1 mM K3Fe(CN)6, 1 mM K4Fe(CN)6, 1 mg/ml 5-dromo-4-chloro-3-indolyl (3-D-GLUCURONIDE (X-Gluc A) and incubated at 37° C. over-night. After staining, the plants were fixed 2 hours in 50 mM sodium phosphate buffer pH 7.0; 1% glutaraldehyde; 4% formaldehyde. In response to phosphate starvation, the lipid metabolism is modified (Benning and Ohta, 2005). Plants preferentially synthesize sulpho- and galacto-lipids instead of phospholipids. Several enzymes are involved in this remobilisation.
# wild type seedlings = assay: Starch accumulation (Lugol/iodine staining); type: in vivo, A. thaliana; conditions: MC2 5 μM; same response as phosphate deficiency (starch strongly accumulated), FIG. 7
# Procedure: Leaves were immersed in ethanol (96%) for 6 h to remove pigment and stained with Lugol solution (Fluka) for 30 min to make the starch granules visible.
# Cyclin B1 = assay: CycB1::GUS, follow-up of the expression of the gene encoding Cyclin B1 (meristematic activity marker); type: in vivo, A. thaliana; conditions: high phosphate medium + MC2 5 μM, FIG. 6
# Text: pCycB1;1:GUS cell line is as described by Colón-Carmona et al. (Colon-Carmona et al., 1999), and expresses the GUS reporter under the control of the promoter of the cyclin B1 gene. […] In response to phosphate deficiency, CycB1 is less expressed. Suprisingly, in response to MC2, the meristematic activity is not reduced (FIG. 6). Thus, it can be concludes that the primary root growth inhibition observed in response to the molecule is not due to inhibition of the meristematic activity.
# wild-type seedlings = assay: Free cellular Pi content (malachite green method); type: in vivo, A. thaliana; conditions: high phosphate medium + MC2 5 μM vs control condition, FIG. 3
# Procedure: Three replicates were performed for each experiment. After 5 min of centrifugation, the supernatant was recovered. Phosphate content was measured using the malachite green method as described (Delhaize and Randall, 1995). One hundred and fifty microliters of molybdate solution (17.55 g/l (NH4)6Mo7, 4H2O, 2M H2SO4) were added to the sample (50 μl) diluted in water (700 μl). Ten minutes later, 150 μl of green malachite solution (3.5 g/l polyvinylic alcohol, 0.35 g/l malachite green) were then added. Measurements were carried out at 610 nm after 2 h. Concentrations were calculated using a calibration curve (performed with aKH2PO4 solution) and expressed per fresh weight. To evaluate if this expression interferes with phosphate content, phosphate content was analyzed in different conditions: high phosphate medium (+Pi), low phosphate medium (−Pi) and high phosphate medium+MC2, 5 μM (+Pi, +MC2 5 μM). […] This phosphate accumulation can be easily explained by the overexpression of the phosphate transporter.
# phopholipase Dz2 = assay: PLDz::GUS, follow-up of the expression of the gene encoding phospholipase Dz2 (GUS staining); type: in vivo, A. thaliana; conditions: high phosphate medium + MC2 5 μM, FIG. 10
# Procedure: as §2, with “pPLDZ2:GUS-GFP cell line is” for “pMGD3:GUS cells are”, “Cruz-Ramirez” for “Kobayashi”, “(Cruz-Ramirez” for “(Kobayashi”, “2006), and” for “2004). In these cells, the GUS reporter is”, “expressed a GUS-GFP fusion” for “expressed”, “pldz2” for “mgd3”
# ferritin = assay: Western blot of plant ferritin on leaf protein extracts; type: in vivo; conditions: leaves, high phosphate medium + MC2 5 μM, FIG. 12
# Text: After SDS-PAGE in a 12% acrylamide gel and transfer onto a nitrocellulose membrane, ferritin was immunodetected with a primary rabbit polyclonal antibody against AtFER1 and a secondary goat antirabbit antibody conjugated with alkaline phosphatase.
# From previous study in the lab, it is known that in response to phosphate starvation, iron is accumulated in cells inducing ferritin accumulation (Hirsch et al., 2006). To determine MC2 effect on iron metabolism, the iron content was quantified by ICP-OES (FIG. 11), accumulation of ferritin was analyzed by Western Blot (FIG. 12) and finally IRT1 gene expression was analyzed, since this gene encodes an iron transporter (FIG. 12).
structure (smiles),measurement,setting,value
Cc1cccc(NC=C2C(=O)CC(C)(C)CC2=O)n1 [MC2],"PHT1;4 expression (in words, summary of analogues)",[1],induce expression of the Pht1;4 gene
same,expression of PHT1;4 (pPHT1;4::GUS),PHT1;4,induce the expression of PHT1;4
same,MGD3 expression (in words),enzyme MGD3,strongly expressed
same,starch accumulation (in words),wild type seedlings,same response
same,"meristematic activity (CycB1 expression, in words)",Cyclin B1,not reduced
same,phosphate accumulation in leaves,wild-type seedlings,two times more
same,phosphate accumulation in roots,wild-type seedlings,two times more
same,PLDζ2 expression (in words),phopholipase Dz2,strongly expressed
same,ferritin accumulation (Western blot),ferritin,not in response to MC2 treatment
